Measurements published in patent publication US12484583B2 (priority 2019, dated 2025).

Assays:
Fusarium culmorum = conditions: in vivo
Rhizoctonia = conditions: in vivo

Row | Compound | fungicidal activity of the insecticide by itself (Fusarium culmorum) | stimulation of the fungicidal action of natamycin (Fusarium culmorum) | fungicidal activity of the insecticide by itself (Rhizoctonia) | stimulation of the fungicidal action of natamycin (Rhizoctonia)
1 | O=[N+]([O-])NC1=NCCN1Cc1ccc(Cl)nc1 [Imidacloprid, N-[1-[(6-chloropyridin-3-yl)methyl]-4,5-dihydroimidazol-2-yl]nitramide] | does not have fungicidal activity by itself | stimulates the fungicidal action of natamycin on seeds of different plants |  | 
2 | abamectin |  |  | does not have fungicidal by itself | stimulates the fungicidal action of natamycin against different fungal pathogens on seeds
